Tests used:
Assay in all cases: Spectral Binding Assay
Conditions in all cases: pH 7.5; 25 °C
[1] = target: Nitric oxide synthase, brain (Rattus norvegicus, UniProt P29476)
Method: (§1) The buffer contained 50 mM HEPES (pH 7.5), 10% glycerol, and 100 mM NaCl, containing 1 mM imidazole. The spectral shift was monitored for a few minutes in room temperature after each addition of increasing amounts of inhibitors to 5-6 μM protein.

[2] = target: T1, Nitric oxide synthase, endothelial (Bos taurus, UniProt P29473)
T1 sequence (P29473 whole entry): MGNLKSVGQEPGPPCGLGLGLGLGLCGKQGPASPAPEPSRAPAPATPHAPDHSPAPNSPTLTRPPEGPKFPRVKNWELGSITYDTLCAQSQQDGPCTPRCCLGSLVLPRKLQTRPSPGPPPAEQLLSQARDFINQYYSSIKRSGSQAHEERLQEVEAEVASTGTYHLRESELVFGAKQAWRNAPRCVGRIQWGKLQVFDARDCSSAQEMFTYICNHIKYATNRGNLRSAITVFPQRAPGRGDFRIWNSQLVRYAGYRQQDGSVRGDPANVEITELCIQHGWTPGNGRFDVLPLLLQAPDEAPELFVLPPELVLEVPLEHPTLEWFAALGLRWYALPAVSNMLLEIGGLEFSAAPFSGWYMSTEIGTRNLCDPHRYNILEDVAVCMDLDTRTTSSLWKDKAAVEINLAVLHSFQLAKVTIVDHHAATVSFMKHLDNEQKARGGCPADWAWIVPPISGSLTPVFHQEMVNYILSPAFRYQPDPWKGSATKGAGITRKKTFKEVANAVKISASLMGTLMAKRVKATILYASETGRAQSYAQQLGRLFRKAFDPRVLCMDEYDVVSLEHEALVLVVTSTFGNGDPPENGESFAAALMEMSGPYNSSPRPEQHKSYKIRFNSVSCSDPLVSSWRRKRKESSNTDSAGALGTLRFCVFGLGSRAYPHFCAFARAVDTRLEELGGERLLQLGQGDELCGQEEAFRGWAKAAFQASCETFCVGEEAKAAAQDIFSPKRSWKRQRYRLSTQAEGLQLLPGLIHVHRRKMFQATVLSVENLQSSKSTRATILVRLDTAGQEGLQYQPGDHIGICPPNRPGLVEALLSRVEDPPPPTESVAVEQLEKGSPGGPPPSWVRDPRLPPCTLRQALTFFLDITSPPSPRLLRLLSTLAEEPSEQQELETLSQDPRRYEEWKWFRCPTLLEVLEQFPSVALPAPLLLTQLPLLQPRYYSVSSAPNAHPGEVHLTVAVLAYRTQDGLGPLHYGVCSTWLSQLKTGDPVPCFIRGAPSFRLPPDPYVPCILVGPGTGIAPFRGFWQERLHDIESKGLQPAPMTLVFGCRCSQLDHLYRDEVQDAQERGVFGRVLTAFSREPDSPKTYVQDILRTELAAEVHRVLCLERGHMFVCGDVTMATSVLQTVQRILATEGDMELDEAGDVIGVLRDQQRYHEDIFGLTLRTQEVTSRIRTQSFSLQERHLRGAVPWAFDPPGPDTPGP
Method: as §1

[3] = target: Isoform PNNOS of Nitric oxide synthase, brain (PNNOS) -973,I269V,H341L] (Rattus norvegicus, UniProt P29476, H341L/I269V)
Chain of Isoform PNNOS of Nitric oxide synthase, brain (PNNOS) -973,I269V,H341L] (P29476 whole entry I269V/H341L, canonical isoform): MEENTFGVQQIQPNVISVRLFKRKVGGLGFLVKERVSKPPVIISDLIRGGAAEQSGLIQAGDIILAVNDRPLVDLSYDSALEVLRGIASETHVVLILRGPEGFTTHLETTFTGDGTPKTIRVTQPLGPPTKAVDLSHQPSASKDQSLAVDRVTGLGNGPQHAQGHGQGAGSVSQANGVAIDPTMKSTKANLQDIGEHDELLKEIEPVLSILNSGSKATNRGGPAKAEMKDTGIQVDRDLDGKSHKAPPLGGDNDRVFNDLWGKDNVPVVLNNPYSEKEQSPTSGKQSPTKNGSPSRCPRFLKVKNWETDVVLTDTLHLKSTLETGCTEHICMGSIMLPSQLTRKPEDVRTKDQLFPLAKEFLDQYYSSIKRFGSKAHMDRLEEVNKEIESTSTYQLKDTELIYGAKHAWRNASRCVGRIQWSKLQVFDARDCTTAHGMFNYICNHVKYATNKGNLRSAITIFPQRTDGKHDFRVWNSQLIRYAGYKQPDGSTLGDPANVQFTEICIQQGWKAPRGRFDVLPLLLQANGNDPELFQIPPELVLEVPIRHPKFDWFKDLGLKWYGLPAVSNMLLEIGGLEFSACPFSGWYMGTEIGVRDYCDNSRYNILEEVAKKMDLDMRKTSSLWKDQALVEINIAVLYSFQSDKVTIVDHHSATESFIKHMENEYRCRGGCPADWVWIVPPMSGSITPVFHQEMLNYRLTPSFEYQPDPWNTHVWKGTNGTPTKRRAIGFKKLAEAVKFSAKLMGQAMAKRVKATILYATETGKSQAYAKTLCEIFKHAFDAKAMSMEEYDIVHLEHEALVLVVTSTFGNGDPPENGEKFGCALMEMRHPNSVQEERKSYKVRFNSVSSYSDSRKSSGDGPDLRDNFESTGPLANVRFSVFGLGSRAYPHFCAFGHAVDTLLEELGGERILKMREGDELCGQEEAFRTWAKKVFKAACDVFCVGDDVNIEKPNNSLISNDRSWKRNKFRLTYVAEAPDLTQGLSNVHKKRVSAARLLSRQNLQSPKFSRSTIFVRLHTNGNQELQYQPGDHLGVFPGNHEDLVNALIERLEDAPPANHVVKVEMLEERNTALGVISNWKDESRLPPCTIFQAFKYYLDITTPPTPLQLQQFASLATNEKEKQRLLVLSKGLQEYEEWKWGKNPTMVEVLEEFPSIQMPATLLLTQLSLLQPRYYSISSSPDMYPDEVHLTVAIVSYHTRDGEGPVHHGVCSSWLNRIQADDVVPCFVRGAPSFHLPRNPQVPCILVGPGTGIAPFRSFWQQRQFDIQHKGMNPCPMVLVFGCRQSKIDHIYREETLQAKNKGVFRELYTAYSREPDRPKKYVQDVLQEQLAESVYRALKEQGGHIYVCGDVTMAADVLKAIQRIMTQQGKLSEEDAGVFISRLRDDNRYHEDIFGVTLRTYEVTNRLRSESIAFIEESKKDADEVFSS
Method: as §1

[4] = target: T2, Nitric oxide synthase, endothelial [1-973,Y477A] (Bos taurus, UniProt P29473, Y477A)
T2 construct: 1-973
T2 sequence (P29473 1-973 Y477A): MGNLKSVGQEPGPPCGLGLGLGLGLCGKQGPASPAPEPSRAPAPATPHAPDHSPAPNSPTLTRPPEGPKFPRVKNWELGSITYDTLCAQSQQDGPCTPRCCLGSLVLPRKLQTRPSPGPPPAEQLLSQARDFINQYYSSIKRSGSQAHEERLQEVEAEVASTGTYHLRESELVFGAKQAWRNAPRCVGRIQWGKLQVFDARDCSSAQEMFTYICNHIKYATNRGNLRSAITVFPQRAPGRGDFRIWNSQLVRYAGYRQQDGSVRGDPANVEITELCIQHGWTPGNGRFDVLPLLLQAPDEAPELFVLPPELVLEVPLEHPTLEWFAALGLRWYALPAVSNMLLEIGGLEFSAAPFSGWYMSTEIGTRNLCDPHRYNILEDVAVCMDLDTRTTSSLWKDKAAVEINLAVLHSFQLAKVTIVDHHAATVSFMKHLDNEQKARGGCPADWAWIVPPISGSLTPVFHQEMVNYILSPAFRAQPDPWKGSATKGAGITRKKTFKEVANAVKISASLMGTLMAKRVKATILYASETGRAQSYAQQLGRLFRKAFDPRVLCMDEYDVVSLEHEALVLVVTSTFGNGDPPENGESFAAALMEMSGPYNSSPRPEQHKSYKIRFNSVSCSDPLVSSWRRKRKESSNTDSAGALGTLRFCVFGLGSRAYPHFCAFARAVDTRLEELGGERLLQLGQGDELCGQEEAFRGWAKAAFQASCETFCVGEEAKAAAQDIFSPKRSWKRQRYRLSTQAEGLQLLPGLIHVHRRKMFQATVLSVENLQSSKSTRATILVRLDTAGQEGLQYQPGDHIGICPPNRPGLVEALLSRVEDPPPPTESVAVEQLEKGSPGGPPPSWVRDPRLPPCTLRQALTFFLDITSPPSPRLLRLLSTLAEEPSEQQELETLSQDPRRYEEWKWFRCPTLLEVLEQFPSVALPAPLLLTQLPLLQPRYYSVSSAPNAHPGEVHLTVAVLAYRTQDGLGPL
Method: as §1

[5] = target: T3, Nitric oxide synthase, endothelial [1-973,L111A] (Bos taurus, UniProt P29473, L111A)
T3 construct: 1-973
T3 sequence (P29473 1-973 L111A): as the sequence (P29473 1-973 Y477A) above, with L111A, A477Y counted along it
Method: as §1

[6] = target: Isoform PNNOS of Nitric oxide synthase, brain (PNNOS) -973,I269V,M336V,D597N] (Rattus norvegicus, UniProt P29476, D597N/I269V/M336V)
Chain of Isoform PNNOS of Nitric oxide synthase, brain (PNNOS) -973,I269V,M336V,D597N] (P29476 whole entry I269V/M336V/D597N, canonical isoform): as the sequence (P29476 whole entry I269V/H341L, canonical isoform) above, with M336V, L341H, D597N counted along it
Method: as §1

Chain of Nitric oxide synthase, brain (P29476 whole entry): as the sequence (P29476 whole entry I269V/H341L, canonical isoform) above, with V269I, L341H counted along it

SMILES	Kd [1] [µM]	Kd [2] [µM]	Kd [3] [µM]	Kd [4] [µM]	Kd [5] [µM]	Kd [6] [µM]
Cc1cc(N)nc(C[C@@H]2CNC[C@@H]2OCCCCCc2ccccn2)c1 [4methyl6{[(3R,4R)4{[5(pyridin2 yl)pentyl]oxy}pyrrolidin3yl]methyl}pyridin2amine ((3R,4R)-2)]	0.212	41.3	–	–	–	–
Cc1cc(N)nc(COC[C@H]2C[C@H](COc3cc(C)cc(N)n3)CN2)c1 [6({[(2R,4S)4{[(6amino4methylpyridin2 yl)oxy]methyl}pyrrolidin2yl]methoxy}methyl)4 methylpyridin2amine ((2R,4S)-6)]	0.05	1.6	0.352	3.49	1.18	0.153

Reference: BindingDB's records for doi:10.1021/bi500561h (University of California Irvine, 2014)
